# Measurements published in US8796249B2, “TGR5 modulators and methods of use thereof” (Intercept Pharmaceuticals, Inc., priority 2008, dated 2014).
# Assay: Biliary secretion, bile flow and metabolism in bile-fistula rat after duodenal (id) and femoral (iv) infusion
# Assay type: in vivo
# Settings: for choleretic effect (bile flow): bile fistula rat
# Procedure: To evaluate the mode and efficiency of the intestinal absorption the analogues were administered both intravenously (femoral infusion) and orally (duodenal infusion) at the same dose and their biliary secretion rate was evaluated in bile fistula rat model. The differences in the area under the curve of the biliary secretion vs time between iv and id administration account of its intestinal absorption and give information about its biovailability.
# The bile fistula rat model was developed at the University of Bologna Lab facilities. The compound 3A was administered at a dose of 1 μmol/kg/min (1 hour infusion) to a rat group via duodenal infusion (id). Rat have a bile fistula to collect bile samples at different times before and during the infusion. For duodenal infusion experiment 3 rats (250±10 g) were treated. Bile samples were collected every 15 minutes for four hours. In addition, 3 control rats were treated with saline solution under the same conditions for times and sampling (duodenal control rats).
# Duodenal infusion starts after 30 min baseline bile collection and continues for one hour.
# For femoral infusion experiment, 3 rats were treated. […] Femoral infusion starts after 75 minutes of steady-state and continues for 60 min. Bile samples were collected every 15 minutes for four hours. In addition, 3 rats were treated with saline solution under the same conditions for times and sampling (femoral control rats).
# Rat bile samples were brought to room temperature, briefly stirred, and diluted 1:100 v/v (bile samples from duodenal orinfusion) and 1:100 or 1:200 v/v (bile samples from femoral infusion) with 15 mM ammonium acetate buffer (pH=5.0):acetonitrile=70:30 (v/v). Final solution was transferred in autosampler vials, and 10 μL was injected into the chromatographic column.
# Bile rat samples were analyzed by liquid chromatography-tandem mass spectrometry (HPLC-MS/MS) using electrospray (ESI) source in negative ionization mode. For liquid chromatography a Waters Alliance 2695 separation module coupled with autosampler was used. Autosampler was maintained at 7° C. Separation was performed on a Synergi Hydro-RP C18 column (150×2.0 mm i.d., 4 μm particle size), protected by a SecurityGuard ODS 4×2.0 mm i.d. precolumn, both supplied from Phenomenex. […]. Nitrogen was used as nebulizer gas at 90 L/h flow rate and as desolvation gas at 930 L/h. Ion source block and desolvation temperatures were set respectively to 80° C. and 180° C. Capillary voltage was 3.0 kV. MassLynx software version 4.0 was used for data acquisition and processing. In addition, using mass spectrometry both in single MS or tandem MS/MS configuration experiments were performed to identify metabolites.
# A 5-point calibration curve was daily prepared and injected in duplicate. Calibration samples were obtained in the 0.1 to 25 μmol/L concentration range prepared in mobile phase. Linear calibration curve parameters were obtained from the plot of the analyte peak area versus analyte concentration using a least squares regression analysis (weight=1/x^2). Correlation coefficients were ≧0.989.
# The data refer to the secretion rate of the analogues recovered in bile as such after duodenal and femoral infusion at a dose of 1 umol/Kg/min. Major and minor metabolites are reported later.
# For a preliminary screening the search of the possible metabolites has been performed on the basis of the expected compounds according to previous experiments and data and to the structure and physicochemical properties of the studied analogues.
# [1] = rat, duodenal infusion 1 umol/Kg/min 1 h, time 120 min
# [2] = rat, duodenal infusion 1 umol/Kg/min 1 h, time 150 min
# [3] = rat, duodenal infusion 1 umol/Kg/min 1 h, time 180 min
# [4] = rat, duodenal infusion 1 umol/Kg/min 1 h, time 210 min
# [5] = rat, duodenal infusion 1 umol/Kg/min 1 h, time 240 min
# [6] = rat, duodenal infusion 1 umol/Kg/min 1 h, time 270 min
# [7] = rat, duodenal infusion 1 umol/Kg/min 1 h, time 300 min
# [8] = rat, femoral infusion 1 umol/Kg/min 1 h, time 90 min
# [9] = rat, femoral infusion 1 umol/Kg/min 1 h, time 120 min
# [10] = rat, femoral infusion 1 umol/Kg/min 1 h, time 150 min
# [11] = rat, femoral infusion 1 umol/Kg/min 1 h, time 180 min
# [12] = rat, femoral infusion 1 umol/Kg/min 1 h, time 210 min
# [13] = rat, femoral infusion 1 umol/Kg/min 1 h, time 240 min
smiles,measurement,setting,value
"CC[C@H]1[C@@H](O)[C@@H]2[C@H](C[C@H](O)[C@]3(C)[C@@H]([C@H](C)CCCS(=O)(=O)[O-])CC[C@@H]23)[C@@]2(C)CC[C@@H](O)C[C@@H]12.[Na+] [Compound 3A, 3α,7α,12α-trihydroxy-6α-ethyl-5β-cholan-24-sulfonate Sodium Salt]",choleretic effect (bile flow),"duodenal infusion (id) 1 μmol/kg/min, 1 hour",moderate choleretic effect
same,choleretic effect (bile flow),"femoral infusion (iv), 60 min",moderate choleretic effect
same,hepatic and intestinal metabolism,"bile-fistula rat, iv and id",not metabolized by the liver or by the intestine
same,intestinal absorption,"rat, after id administration, recovery in bile much lower than after iv",poorly absorbed by the intestine
same,recovery in bile,"rat, after iv administration",almost completely recovered in bile
same,Conc. in bile,[1],0.37 mmol/L
same,Secretion (biliary),[1],0.026 µmol/kg/min
same,Conc. in bile,[2],0.90 mmol/L
same,Secretion (biliary),[2],0.079 µmol/kg/min
same,Conc. in bile,[3],1.3 mmol/L
same,Secretion (biliary),[3],0.101 µmol/kg/min
same,Conc. in bile,[4],0.95 mmol/L
same,Secretion (biliary),[4],0.061 µmol/kg/min
same,Conc. in bile,[5],0.70 mmol/L
same,Secretion (biliary),[5],0.043 µmol/kg/min
same,Conc. in bile,[6],0.58 mmol/L
same,Secretion (biliary),[6],0.039 µmol/kg/min
same,Conc. in bile,[7],0.51 mmol/L
same,Secretion (biliary),[7],0.029 µmol/kg/min
same,Conc. in bile,[8],2.6 mmol/L
same,Secretion (biliary),[8],0.105 µmol/kg/min
same,Conc. in bile,[9],7.3 mmol/L
same,Secretion (biliary),[9],0.588 µmol/kg/min
same,Conc. in bile,[10],7.5 mmol/L
same,Secretion (biliary),[10],0.463 µmol/kg/min
same,Conc. in bile,[11],6.2 mmol/L
same,Secretion (biliary),[11],0.363 µmol/kg/min
same,Conc. in bile,[12],3.4 mmol/L
same,Secretion (biliary),[12],0.247 µmol/kg/min
same,Conc. in bile,[13],1 mmol/L
same,Secretion (biliary),[13],0.045 µmol/kg/min
